# From US8956832B2, “Cells expressing anti-GD2 antibodies and methods related thereto” (Morphotek, Inc., priority 2008, dated 2015)
# Tested on: AB527-expressing cells
# Experiment: Effect of valeric acid on cell growth and antibody production
# Assay type: cell-based, Chinese Hamster
# Settings: for Maximum Viable Cell Density: 14 days; for Doubling Time (DT): in h (unit assumed)
# Procedure: To determine the effect of valeric acid on cell growth, AB527-expressing cells were cultured in GIBCO-CD-CHO complete medium supplemented with valeric acid to a concentration of 0 mM, 1 mM, 2 mM, 4 mM, or 8 mM. Cells were cultured for 14 days and viable cell density, percent viability, and integral viable cell density were determined using a CEDEX automated cell counter on days 0, 3, 5, 7, 10, 13, and 14. Antibody production was determined for each group of cultured cells on day 14 by protein A HPLC.
smiles,measurement,setting,value
"CCCCC(=O)O [Valeric Acid, valeric acid]",Integral of Viable Cell Density (IVC),1 mM valeric acid,6.74E+7 cells · day/mL
same,Specific Antibody Production Rate (Qp),1 mM valeric acid,58.44 mg/10^9 cells/day
same,Maximum Viable Cell Density,1 mM valeric acid,94.60 10^5/mL
same,Final Antibody Titer,"1 mM valeric acid, day 14",4137.1 mg/L
same,antibody titer higher than that of the control culture,"1 mM valeric acid, day 14",36%
same,Final Antibody Titer,"1 mM valeric acid, day 14, listed as valeric acid",4137 mg/L
same,Doubling Time (DT),1 mM valeric acid,24.17
same,Integral of Viable Cell Density (IVC),2 mM valeric acid,6.55E+7 cells · day/mL
same,Specific Antibody Production Rate (Qp),2 mM valeric acid,54.45 mg/10^9 cells/day
same,Maximum Viable Cell Density,2 mM valeric acid,81.00 10^5/mL
same,Final Antibody Titer,"2 mM valeric acid, day 14",3706.7 mg/L
same,Doubling Time (DT),2 mM valeric acid,24.17
same,Integral of Viable Cell Density (IVC),4 mM valeric acid,6.72E+7 cells · day/mL
same,Specific Antibody Production Rate (Qp),4 mM valeric acid,52.24 mg/10^9 cells/day
same,Maximum Viable Cell Density,4 mM valeric acid,77.40 10^5/mL
same,Final Antibody Titer,"4 mM valeric acid, day 14",3600.1 mg/L
same,Doubling Time (DT),4 mM valeric acid,24.17
same,Integral of Viable Cell Density (IVC),8 mM valeric acid,4.76E+7 cells · day/mL
same,Specific Antibody Production Rate (Qp),8 mM valeric acid,56.16 mg/10^9 cells/day
same,Maximum Viable Cell Density,8 mM valeric acid,54.40 10^5/mL
same,maximum cell density,"8 mM valeric acid, at day 7",5.4×10^6 cells/mL
same,viability,"8 mM valeric acid, at day 7",67.4%
same,Final Antibody Titer,"8 mM valeric acid, day 14",2760.4 mg/L
same,Doubling Time (DT),8 mM valeric acid,24.17
